One test relates to Aβ plaques. Nature of the test: [3H]PIB competition autoradiography in postmortem human AD frontal cortex slices. In kind it is binding. As to conditions: for displacement of [3H]PIB (words, discussion): concentration not restated.
Another test has as its system amyloid β. As to conditions: ref Salloway et al. 2014, Doody et al. 2014, Siemers et al. 2016, cited from earlier work.
In another test the target is α4β2* nAChRs (Rattus norvegicus, UniProt P09483+P12390). Particulars: 100 nM drug; rat brain slices.
Where [1] appears, read: 10 μM drug, control GM/WM approx. 3.

Chain of α4β2* nAChRs (P09483 31-630): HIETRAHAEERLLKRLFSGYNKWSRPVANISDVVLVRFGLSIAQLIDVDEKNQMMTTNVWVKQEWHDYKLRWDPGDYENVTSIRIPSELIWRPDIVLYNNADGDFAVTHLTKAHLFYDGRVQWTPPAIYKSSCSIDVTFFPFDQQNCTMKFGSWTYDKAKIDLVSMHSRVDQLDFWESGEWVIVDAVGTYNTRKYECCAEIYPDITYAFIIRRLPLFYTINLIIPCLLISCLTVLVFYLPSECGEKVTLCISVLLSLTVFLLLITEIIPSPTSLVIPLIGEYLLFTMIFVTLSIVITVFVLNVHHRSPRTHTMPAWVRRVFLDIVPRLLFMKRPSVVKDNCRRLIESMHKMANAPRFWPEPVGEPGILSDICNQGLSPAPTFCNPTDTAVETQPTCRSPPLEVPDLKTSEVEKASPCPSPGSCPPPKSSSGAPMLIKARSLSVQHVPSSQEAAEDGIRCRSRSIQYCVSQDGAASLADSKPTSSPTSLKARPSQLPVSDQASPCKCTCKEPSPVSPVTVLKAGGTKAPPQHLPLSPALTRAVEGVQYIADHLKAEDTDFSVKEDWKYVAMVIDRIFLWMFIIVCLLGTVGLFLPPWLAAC
Chain of α4β2* nAChRs (P12390 25-500): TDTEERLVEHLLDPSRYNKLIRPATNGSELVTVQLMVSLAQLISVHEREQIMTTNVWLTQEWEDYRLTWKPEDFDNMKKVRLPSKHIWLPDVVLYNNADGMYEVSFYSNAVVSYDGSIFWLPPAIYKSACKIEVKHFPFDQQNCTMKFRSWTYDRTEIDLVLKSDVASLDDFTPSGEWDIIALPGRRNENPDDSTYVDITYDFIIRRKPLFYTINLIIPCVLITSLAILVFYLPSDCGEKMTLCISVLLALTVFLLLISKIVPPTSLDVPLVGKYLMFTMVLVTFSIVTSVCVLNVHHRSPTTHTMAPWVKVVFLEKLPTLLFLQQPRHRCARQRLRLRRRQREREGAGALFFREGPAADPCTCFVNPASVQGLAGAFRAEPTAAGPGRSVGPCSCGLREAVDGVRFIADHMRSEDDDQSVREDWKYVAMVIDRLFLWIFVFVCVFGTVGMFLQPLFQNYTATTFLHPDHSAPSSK

In the case of `COc1cc(/C=C/C(=O)CC(=O)/C=C/c2ccc(O)c(OC)c2)ccc1O` [CUR, curcumin], the “reduction in GM/WM [3H]PIB binding” value in the test with Aβ plaques (10 μM drug) amounted to 50%. Moreover, the “GM/WM ratio of [3H]PIB binding” value with Aβ plaques (setting [1]) is on record as 1.5. The “displacement of [3H]PIB (words, discussion)” value (“displacement of [3H]PIB” for short) with Aβ plaques is given as “significant displacement effect”.

As to “solanezumab: Anti-amyloid β monoclonal antibody”, the clinical outcome with amyloid β (mild to moderate AD) is on record as “Did not improve clinical outcomes. Trials continue in early stage of disease”. The “Aβ plaque load (measured by PET imaging) before and after antibody treatment” value with amyloid β is listed as “did not change significantly”.

Regarding “FEX-(3-methoxy-4-(1′-aminobutyryloxy)cinnamic acid [KD-003]”, the “[3H]PIB levels in GM and WM” value in the test with Aβ plaques (10 μM drug) was “higher levels of [^3H]PIB”. Besides, the “GM/WM ratio of [3H]PIB binding” value with Aβ plaques (setting [1]) is 2.4.

For `CNc1ccc(N=Nc2ccc(N(C)C)cc2)cc1` [TAZA, 4-methylamino-4'-N,N-dimethylaminoazobenzene], in the test with Aβ plaques (1 μM drug), the “effect on [3H]PIB binding” value is “significant displacement of [^3H]PIB”. Further, the “displacement of [3H]PIB” value in the test with Aβ plaques is on record as “greater than observed by CUR”.

On to “5-(3-methoxy-4-propyloxycinnamate)-3-(2-(S)-pyrrolidinylmethoxy)pyridine [GKS-007]”, for which the “displacement of [3H]cytisine” value on α4β2* nAChRs is given as “Displacement of significant amounts”. Also, the “effect on [3H]PIB binding” value with Aβ plaques (1 μM drug) is reported as “some inhibitory effect”. The “GM/WM ratio of [3H]PIB binding” value in the test with Aβ plaques (1 μM drug, control GM/WM ~2) is on record as “no significant GM/WM ratio reduction”.

For the compound “5-(3′-Ethyl 3-methoxy-4-propyloxycinnamate)-3-(2-(S)-pyrrolidinylmethoxy)pyridine [GKS-006]”, on α4β2* nAChRs, the “displacement of [3H]cytisine” value was “Displacement of significant amounts”.

With `COc1cc(/C=C/C(=O)O)ccc1O` [FA, ferulic acid], in the test with Aβ plaques (1 μM drug), the “effect on [3H]PIB binding” value is “did not significantly affect the binding of [^3H]PIB”. Further, the “GM/WM ratio of [3H]PIB binding” value in the test on Aβ plaques (1 μM drug, control GM/WM ~2) is listed as ~ 2; with Aβ plaques (setting [1]) it was 2. Further, the “[3H]PIB levels in GM and WM” value in the test on Aβ plaques (10 μM drug) was “higher levels of [^3H]PIB”. For the same compound, in the test on Aβ plaques, the “displacement of [3H]PIB” value is “little displacement”.

The values are drawn from article PMC6013267 (Medicinal chemistry research : an international journal for …, 2018).
